This note sets out measurements from PMC6974524 (Frontiers in Microbiology, 2020).

One data set has as its target DdlA (Mycobacterium tuberculosis, UniProt P9WP31). It counts as biochemical. Particulars: for Kcat: Vmax divided by enzyme concentration. The text has this: The activity of DdlA was monitored by coupling with pyruvate kinase (PK) and lactate dehydrogenase (LDH; Sigma-Aldrich) to detect the release of ADP. […] The assay system was monitored via a Perkin Elmer EnSpire® 2300 Multimode Plate Reader (PerkinElmer, MA, United States) by detecting decreases in NADH.
The calibration curve of the ultraviolet absorption of NADH at 340 nm to its concentrations was fabricated before studying the enzymatic kinetics of DdlA. The kinetic parameters of DldA were determined using serial twofold dilutions of one substrate (from 1 mM to 31.25 μM), while the other substrate was held constant at 1 mM. Km and Vmax values were calculated using non-linear regression of the Michaelis-Menten model in GraphPad Prism 5.0 (GraphPad Software, Inc., San Diego, CA, United States). Kcat was calculated based on the molecular weight of DdlA (42 kDa).

Data set [1] deals with HepG2 cells. The data set is described as follows: Cytotoxicity assay (MTT), HepG2. The note with it: for SI: HepG2 TC50 relative to H37Rv MIC.
The test system of data set [2] is HepG2 cells.
The test system of data set [3] is Mtb H37Rv. Description: microbe, parasite or virus in culture. It counts as cell-based, Mycobacterium tuberculosis. The note with it: for MIC: Mycobacterium tuberculosis, 336 h.
Another data set deals with clinical Mtb strains. Description: microbe, parasite or virus in culture. It counts as cell-based, Mycobacterium tuberculosis. Particulars: for MIC: Mycobacterium tuberculosis.
Data set [4] deals with Mtb H37Rv. Description: Mouse model of TB, pulmonary bacterial load. The data set is classed as in vivo, Balb/c mice. The note with it: 25 mg/kg by gavage, 15 administrations (five times per week); vehicle 5.58. The text has this: Specific pathogen-free (SPF) male Balb/c mice were purchased from the Institute of Laboratory Animal Sciences at the Chinese Academy of Medical Sciences and Peking Union Medical College. All animal experiments were supervised and approved by the Institutional Animal Care and Use Committee of the Institute of Medicinal Biotechnology. Twenty-six mice (6–8 weeks old, 18–20 g) were infected with Mtb H37Rv (about 100 CFU) via the 099C A4224 Inhalation Exposure System (Glas-col, Terre Haute, IN, United States). At 15 days after inoculum, two mice were anesthetized and decapitated to confirm the success of infection. DCS, INH, IMB-0283, and vehicle (0.5% CMC-Na) were administered through a gavage route (six mice per group). All chemicals were dosed at 25 mg/kg. Mice were sacrificed after 15 administrations (five times per week) to quantify pulmonary bacterial loads via counting CFUs.

For data set [5], the system named is Vero green-monkey kidney cells. The data set is described as follows: Cytotoxicity assay (MTT), Vero. The note with it: Vero TC50 relative to H37Rv MIC.
The target in another data set is Mtb DdlA (Mycobacterium tuberculosis, UniProt P9WP31). The data set is described as follows: DdlA inhibition, PK/LDH-coupled assay detecting ADP release (NADH decrease). It counts as biochemical.
The test system of data set [6] is Vero green-monkey kidney cells. Particulars: 2 days.
The test system of data set [7] is Mtb H37Rv. Description: Morphology of Mtb by scanning electron microscopy. The data set is classed as cell-based, Mycobacterium tuberculosis. Particulars: 0.35 μg/mL.
Another data set has as its system C[C@@H](N)C(=O)O. Description: purified protein, by the assay type. Particulars: pH 8.0; 37.0 °C.
Setting [8] is: substrate of DdlA, other substrate at 1 mM.
The mark [9] stands for this setting: Mtb H37Rv, 2 weeks at 37°C, read-out: MIC.
Setting [10] is: Dixon plot, Figure 4 panels A, C, substrate ATP inferred, read-out: Ki for DdlA (ATP) (converted).
Where [11] appears, read: Dixon plot, competing substrate ATP, read-out: Ki for DdlA (ATP) (converted).

Values after ≈ are worked out from the molar mass of the structure shown. Values joined by “and” are separate entries in the source; they are usually repeats but may differ in a detail not shown here. Equal entries are not always repeated. “Also recorded” adds a separate entry of the source. Where two headings read alike, the source gives them in different places.

Mtb DdlA, sequence (P9WP31 whole entry, looked up): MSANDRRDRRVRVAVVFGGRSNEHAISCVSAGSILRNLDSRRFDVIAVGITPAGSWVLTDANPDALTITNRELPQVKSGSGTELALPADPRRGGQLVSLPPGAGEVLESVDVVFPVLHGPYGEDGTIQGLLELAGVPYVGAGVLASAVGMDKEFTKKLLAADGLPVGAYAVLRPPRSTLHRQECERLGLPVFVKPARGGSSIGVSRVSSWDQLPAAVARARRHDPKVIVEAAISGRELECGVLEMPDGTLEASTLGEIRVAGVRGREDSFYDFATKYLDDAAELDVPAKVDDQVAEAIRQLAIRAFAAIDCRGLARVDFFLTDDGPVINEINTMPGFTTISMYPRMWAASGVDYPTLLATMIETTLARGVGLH
DdlA, sequence (P9WP31 whole entry, looked up): as above

In general, Km refers to the concentration of substrate that gives half-maximal velocity. With `Nc1ncnc2c1ncn2[C@@H]1O[C@H](COP(=O)(O)OP(=O)(O)OP(=O)(O)O)[C@@H](O)[C@H]1O` [ATP], the Kcat on DdlA was 405.8 min^–1 and 383.00 ± 14.14 min^–1. Moreover, on DdlA (setting [8]), the Km came to 360 ± 30.5 µM; the Vmax was 20.29 μMmin^–1 and 19.15 ± 0.705 μMmin^–1.

In turn, `C[C@@H](N)C(=O)O` [D-Ala, D-alanine] gave a Kcat at DdlA of 568.79 ± 48.93 min^–1. At DdlA (setting [8]), the Vmax stood at 28.44 ± 2.444 μMmin^–1.

The Ki is a measure of affinity in units of concentration, obtained from inhibition or displacement. `N[C@@H]1CON=C1O` [DCS, D-cycloserine, reference compound]: the SI came to 86.25 in the data set on HepG2 cells [1] and 127.75 in data set [5]. For the same molecule, the SI index entry in the data set on HepG2 cells [2] (human (HepG2) and green monkey (Vero)) is on record as “about 80”. The MIC with Mtb H37Rv [3] (setting [9]) was determined as 16 µg/mL (≈ 157 µM). Further, in the data set with clinical Mtb strains (range over clinical strains), the “MICs to several clinical strains” value is on record as “did not show any inhibitory effect”. For the same molecule, the “Mtb load in mouse lungs” value in the data set on Mtb H37Rv [4] was “did not yield any such treatment efficacy; also recorded: did not yield any antibacterial activity; also recorded: showed no antibacterial activity”. The Ki is 106 µM on Mtb DdlA (setting [10]), 107 µM at Mtb DdlA (setting [11]) and 182 µM at Mtb DdlA (Ki for DdlA (D-Ala)).

A word on the IC50: it is the concentration needed to halve the response being measured. Turning to `OC1(c2ccc(OC(F)F)cc2)C[N+](c2ccccc2)=C2CCCCN21` (centres unmarked) [IMB-0283], the results for the SI (in the data set with HepG2 cells [1]; in data set [5]) were 230.8 and 499.6, respectively. In addition, in the data set with HepG2 cells [1] (cell line not specified (HepG2 and Vero)), the SI index result is reported as “greater than 200”. Further, the TC50 in the data set with HepG2 cells [2] (human, 2 days) came out at 115.4 µg/mL; in data set [6], 249.8 µg/mL. Further, the MIC was 0.5 µg/mL with Mtb H37Rv [3] (setting [9]); 0.5 to 4 µg/mL in the data set with clinical Mtb strains (range over clinical strains, read-out: MICs to several clinical strains); 0.5 µg/mL in the data set with clinical Mtb strains (strain FJ05060, S to INH, RMP, EMB, STR, CPM, KAN, OFX, read-out: MIC); 2 µg/mL in the data set on clinical Mtb strains (strain FJ05120, R to INH, RMP, read-out: MIC); 1 µg/mL in the data set with clinical Mtb strains (strain FJ05189, R to INH, RMP, read-out: MIC); 4 µg/mL in the data set on clinical Mtb strains (strain FJ05195, R to INH, RMP, EMB, STR, KAN, OFX, S to CPM, read-out: MIC). The MIC worked out at 0.5 µg/mL in the data set with clinical Mtb strains (strain FJ05349, S to INH, RMP, EMB, STR, CPM, KAN, OFX, read-out: MIC) and 4 µg/mL with clinical Mtb strains (strain xz, R to INH, RMP, STR, CPM, OFX, S to EMB, KAN, read-out: MIC). Besides, in the data set with Mtb H37Rv [4], the “Mtb load in mouse lungs” value was found to be 4.40 log CFU/mL. Moreover, the “Morphology of Mtb” value in the data set with Mtb H37Rv [7] (12 h) was “typical long-rod morphology”; with Mtb H37Rv [7] (7 days) it was “shrunken, shorter, and fragmented”. Besides, the Ki at Mtb DdlA (setting [10]) was 5.43 µM; on Mtb DdlA (setting [11]), 4.44 µM; on Mtb DdlA (Ki for DdlA (D-Ala)) it was 32.6 µM and 39.9 µM. Further, the Inhibitory mode result on Mtb DdlA (Lineweaver-Burk and Dixon plots) is listed as “competed with both substrates of DdlA”. Further, the figures for the IC50 at Mtb DdlA (mean of n = 3) and at Mtb DdlA (printed in Figure 3B) were 6.16 µM and 7.62 µM, respectively.

Consider `NNC(=O)c1ccncc1` [INH, isoniazid], for which, in the data set with Mtb H37Rv [3] (H37Rv, IMB-0283 at 0.125 μg/mL), the “Reduction of MIC when combined with IMB-0283” value is given as “eightfold”. Further, in the data set on Mtb H37Rv [3] (H37Rv, IMB-0283 at 0.125 μg/mL (0.25 × MIC)), the “MIC when combined with IMB-0283” value was 0.016 µg/mL. The MIC in the data set with Mtb H37Rv [3] (setting [9]) was determined as 0.125 µg/mL (≈ 0.911 µM). In addition, the “Mtb load in mouse lungs” value in the data set with Mtb H37Rv [4] is 3.29 log CFU/mL.

On to `CO[C@H]1/C=C/O[C@@]2(C)Oc3c(C)c(O)c4c(O)c(c(/C=N/N5CCN(C)CC5)c(O)c4c3C2=O)NC(=O)/C(C)=C\C=C\[C@H](C)[C@H](O)[C@@H](C)[C@@H](O)[C@@H](C)[C@H](OC(C)=O)[C@@H]1C` [RMP, rifampin], for which the “MIC when combined with IMB-0283” value with Mtb H37Rv [3] turned out to be 0.016 µg/mL. For the same molecule, the MIC in the data set with Mtb H37Rv [3] (H37RV) stood at 0.063 µg/mL (≈ 0.0766 µM).

The kcat is the maximal rate divided by the concentration of active sites. On to (Mycobacterium tuberculosis H37Rv), for which, in the data set with C[C@@H](N)C(=O)O, the Vmax came out at 28.4 µM/min and the kcat was determined as 9.48 s⁻¹.
